{
  "source": "ChEMBL document CHEMBL4346720",
  "about": "“Review of the molecular mechanisms of Ganoderma lucidum triterpenoids: Ganoderic acids A, C2, D, F, DM, X and Y” (Eur J Med Chem, 2019)",
  "key": {"DNA topoisomerase 1": {"biological_target": "T1, DNA topoisomerase 1 (Homo sapiens, UniProt P11387)", "T1 sequence (P11387 whole entry)": "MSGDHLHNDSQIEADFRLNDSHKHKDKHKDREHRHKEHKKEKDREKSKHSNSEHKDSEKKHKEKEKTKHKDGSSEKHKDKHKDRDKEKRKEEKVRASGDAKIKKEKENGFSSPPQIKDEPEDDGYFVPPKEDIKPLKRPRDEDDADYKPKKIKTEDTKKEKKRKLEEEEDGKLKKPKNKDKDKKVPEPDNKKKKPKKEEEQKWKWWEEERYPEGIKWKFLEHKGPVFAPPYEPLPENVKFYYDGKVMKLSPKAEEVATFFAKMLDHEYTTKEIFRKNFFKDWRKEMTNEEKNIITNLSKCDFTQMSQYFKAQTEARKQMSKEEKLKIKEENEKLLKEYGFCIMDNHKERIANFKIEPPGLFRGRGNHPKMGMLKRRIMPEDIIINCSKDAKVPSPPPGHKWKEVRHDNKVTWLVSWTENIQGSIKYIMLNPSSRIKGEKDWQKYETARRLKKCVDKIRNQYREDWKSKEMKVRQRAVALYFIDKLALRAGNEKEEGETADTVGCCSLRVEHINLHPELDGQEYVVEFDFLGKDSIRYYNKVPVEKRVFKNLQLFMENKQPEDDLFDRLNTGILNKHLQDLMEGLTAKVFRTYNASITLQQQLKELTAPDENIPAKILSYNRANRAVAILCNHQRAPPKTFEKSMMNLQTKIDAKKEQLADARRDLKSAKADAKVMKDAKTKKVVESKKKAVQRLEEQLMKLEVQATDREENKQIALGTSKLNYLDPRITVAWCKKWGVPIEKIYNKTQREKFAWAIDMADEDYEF", "experiment": "Inhibition of recombinant human topoisomerase-1-mediated relaxation of supercoiled pRYG DNA after 30 mins by ethidium bromide staining based assay"}, "HeLa": {"system": "HeLa", "experiment": "Induction of apoptosis in human HeLa cells", "format": "functional, cell-based"}, "RAW264.7": {"system": "RAW264.7", "experiment": "Cytotoxicity against mouse RAW264.7 cells assessed as reduction in cell viability by WST-1 assay", "format": "functional"}, "[1]": {"experiment": "Inhibition of RANKL/tumour necrosis factor alpha-induced formation of osteoclasts (unknown origin) by tartrate-resistant acid phosphatase staining based assay", "format": "functional"}, "HepG2": {"system": "HepG2", "experiment": "Cytotoxicity against human HepG2 cells assessed as reduction in cell viability after 24 hrs by MTT assay", "format": "functional", "details": "HepG2, 24 h"}, "[2]": {"biological_target": "Signal transducer and activator of transcription 3 (Homo sapiens) (UniProt P40763)", "sequence (P40763 whole entry)": "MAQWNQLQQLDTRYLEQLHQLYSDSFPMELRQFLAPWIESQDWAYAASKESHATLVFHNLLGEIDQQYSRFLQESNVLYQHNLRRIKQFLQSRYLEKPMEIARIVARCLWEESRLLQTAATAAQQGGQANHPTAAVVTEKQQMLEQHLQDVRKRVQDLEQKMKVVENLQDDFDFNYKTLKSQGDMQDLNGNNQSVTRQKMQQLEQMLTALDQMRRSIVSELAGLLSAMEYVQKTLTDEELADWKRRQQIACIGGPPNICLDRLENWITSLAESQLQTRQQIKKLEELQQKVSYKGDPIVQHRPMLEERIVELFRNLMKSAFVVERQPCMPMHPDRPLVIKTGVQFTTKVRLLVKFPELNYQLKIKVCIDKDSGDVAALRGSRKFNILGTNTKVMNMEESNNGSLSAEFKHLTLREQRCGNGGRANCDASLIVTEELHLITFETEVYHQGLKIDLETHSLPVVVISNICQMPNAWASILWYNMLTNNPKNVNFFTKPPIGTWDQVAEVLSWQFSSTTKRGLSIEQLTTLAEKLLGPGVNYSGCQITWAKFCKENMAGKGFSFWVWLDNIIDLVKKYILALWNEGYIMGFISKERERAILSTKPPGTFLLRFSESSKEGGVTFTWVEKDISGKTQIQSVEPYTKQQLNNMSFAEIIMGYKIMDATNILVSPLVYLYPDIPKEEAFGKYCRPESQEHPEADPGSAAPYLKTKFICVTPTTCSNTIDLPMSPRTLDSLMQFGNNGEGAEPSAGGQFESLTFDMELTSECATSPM", "experiment": "Inhibition of IL-6-stimulated STAT3 (unknown origin) phosphorylation preincubated for 4 hrs followed by IL-6 addition measured after 24 hrs by luciferase reporter gene assay"}, "[3]": {"experiment": "Tmax in Sprague-Dawley rat at 300 mg/kg, po by LC-ESI-IT-TOF/MS analysis", "format": "ADME, organism-based", "details": "in vivo"}, "Osteoclast": {"system": "Osteoclast", "experiment": "Inhibition of calcitriol-induced formation of Sprague-Dawley rat osteoclasts by […]", "format": "functional"}, "[4]": {"experiment": "Inhibition of human T9A4 cells assessed as reduction in cholesterol synthesis after 30 mins in presence of [14C]acetate, [14C]mevanolate, 24,25-dihydro-[24,25-3H2]lanosterol, [3-3H]lathosterol by acetate incorporation assay", "format": "functional"}},
  "data": [
    {"smiles": "CC(=O)O[C@H]1C[C@H]([C@H](C)CC/C=C(\\C)C(=O)O)[C@@]2(C)CC=C3C(=CC[C@H]4C(C)(C)[C@H](O)CC[C@]34C)[C@]12C", "values": [
      {"measurement": "IC50", "setting": "DNA topoisomerase 1", "value": 25, "unit": "µM"}
    ]},
    {"smiles": "C[C@H](CC(=O)C[C@H](C)C(=O)O)[C@H]1CC(=O)[C@@]2(C)C3=C(C(=O)C[C@]12C)[C@@]1(C)CCC(=O)C(C)(C)[C@@H]1C[C@@H]3O", "values": [
      {"measurement": "IC50", "setting": "HeLa", "value": 17.3, "unit": "µM"},
      {"measurement": "CC50", "setting": "RAW264.7", "value": "> 400", "unit": "µM"},
      {"measurement": "IC50", "setting": "[1]", "value": 400, "unit": "µM"}
    ]},
    {"smiles": "C[C@H](CC(=O)C[C@@H](C)[C@H]1C[C@H](O)[C@@]2(C)C3=C(C(=O)C[C@]12C)[C@@]1(C)CCC(=O)C(C)(C)[C@@H]1C[C@@H]3O)C(=O)O", "note": "[GANODERIC ACID A]", "values": [
      {"measurement": "CC50", "setting": "HepG2", "value": 80, "unit": "µM"},
      {"measurement": "MIC", "setting": "[2]", "value": 60, "unit": "µM"}
    ]},
    {"smiles": "C[C@H](CC(=O)C[C@@H](C)[C@H]1C[C@H](O)[C@@]2(C)C3=C(C(=O)C[C@]12C)[C@@]1(C)CC[C@H](O)C(C)(C)[C@@H]1C[C@@H]3O)C(=O)O", "note": "[GANODERIC ACID C2]", "values": [
      {"measurement": "Tmax", "setting": "[3]", "value": 3.9, "unit": "min"}
    ]},
    {"smiles": "C/C(=C/CC[C@@H](C)[C@H]1CC[C@@]2(C)C3=C(CC[C@]12C)[C@@]1(C)CCC(=O)C(C)(C)[C@@H]1CC3=O)C(=O)O", "note": "[GANODERIC ACID DM]", "values": [
      {"measurement": "CC50", "setting": "RAW264.7", "value": 65, "unit": "µM"},
      {"measurement": "IC50", "setting": "[1]", "value": 30, "unit": "µM"},
      {"measurement": "MIC", "setting": "Osteoclast", "value": 10, "unit": "µg/mL"}
    ]},
    {"smiles": "C/C(=C\\CC[C@@H](C)[C@H]1CC[C@@]2(C)C3=CC[C@H]4C(C)(C)[C@@H](O)CC[C@]4(C)C3=CC[C@]12C)C(=O)O", "note": "[GANODERIC ACID Y]", "values": [
      {"measurement": "IC50", "setting": "[4]", "value": 1.4, "unit": "µM"}
    ]}
  ]
}
